This is an account of results in PubChem BioAssay AID1288 (Columbia University Molecular Screening Center, 2008).

This assay is described as follows: inhibitors of TNFa-induced E-selectin expression, confirmation, imaging, retest plus dose response, cell count (AID 1288).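 Also: 0% = stimulated vehicle wells and 100% = unstimulated vehicle wells.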 As to conditions: human endothelial cells, TNFa-induced E-selectin, imaging; at 2 µM; active compounds read high.

Calls of active or inactive are those of the source. No rule for the calls is given here.

As to `CCC(=O)Nc1cccc(NC(=O)CSc2nnc(-c3ccc(NS(C)(=O)=O)cc3)n2C)c1`, the inhibition (commonly the drop in the measured response relative to a control, in per cent) was -2.9% (inactive).
Consider `Cc1cc2cc(NC(=O)c3ccco3)ccc2[nH]1`, for which the inhibition was -3.69% (inactive).
For the compound `Cc1cc(OCC(=O)Nc2ccncc2)c(C)cc1Br`, the inhibition is 3.41% (inactive).
In the case of `CCOC(=O)N1CCc2c(sc3c2c(=O)n(Cc2ccccc2)c(=O)n3Cc2cccc(C)c2)C1`, the inhibition is 5.64% (inactive).
As to `CCCCOc1ccc(-c2nnn(C(C)C(=O)OCC)n2)cc1` (stereo not drawn), the inhibition was 27.1% (inactive).
For the compound `Cc1ccc(/C=C/C(=O)C2C(=O)c3ccccc3C2=O)cc1`, the inhibition is 23.7% (inactive).
For the compound `CCOc1cc(N2CCOCC2)c(OCC)cc1NS(=O)(=O)c1ccc(Cl)s1`, the inhibition was 6.76% (inactive).
In the case of `COC(=O)c1cc2c(s1)CS(=O)C2` (stereo not drawn), the inhibition was 14.6% (inactive).
Consider `Cc1cc(NCCN2CCCCC2)n2c(nc3ccccc32)c1C#N`, for which the inhibition is 11.7% (inactive).
The value for `COc1cc(CNCc2ccco2)ccc1OCc1ccccc1` was 11.6% (inactive); that for `CCCCCC1NC(=O)NC1CCCCCC(=O)O` (stereo not drawn) was 0.1% (inactive).
The value for `Cc1ccc(N2C(=O)C3C4C=CC(CNC(=S)Nc5ccc(F)cc5)(O4)C3C2=O)cc1` (stereo not drawn) was 5.92% (inactive); that for `COc1ccc(Cl)cc1NC(=S)NCc1ccco1` was 2.52% (inactive); that for `COC(=O)c1cc(Br)c(=O)n(Cc2ccncc2)c1` was 6.86% (inactive).
With `O=C(Nc1ccccc1)N(CCc1ccncc1)C1CCCCC1`, the inhibition is 5.75% (inactive).
For the compound `Cc1ccc(-n2ncc3c(=O)n(CC(=O)N4CCCCCC4)cnc32)cc1`, the inhibition was -0.4% (inactive).
As for `CCOC(=O)c1ccc(Nc2cc(C)nc(N3CCOCC3)n2)cc1`, the inhibition is 5.21% (inactive).
Regarding `COc1ccc(Cc2nnc(SCC(=O)NC3CCCC3)o2)cc1`, the inhibition is 40.2% (inactive).
Take `Cc1cc(SCC(=O)c2cccs2)nc2ccccc12`: the inhibition was 8.62% (inactive).
On to `CC1=C(C(=O)N2CCC3(CC2)OCCO3)C2(CCC(C)CC2)OC1=O` (stereo not drawn), for which the inhibition is 6.34% (inactive).
`COCCCNC(=O)COc1ccc(S(=O)(=O)NCc2ccccc2)cc1Cl`: the inhibition was 7.46% (inactive).
Turning to `COc1ccc(CCn2c(=S)[nH]c3cc(C(=O)NCc4ccco4)ccc3c2=O)cc1OC`, the inhibition was 11% (inactive).
The value for `CC1=NN(C(C)C)C(=O)C1` was 25.1% (inactive); that for `Cc1nc2ccccc2c(=O)n1/N=C/c1ccc(O)cc1` was 4.58% (inactive); that for `C=C(C)CC(NCCc1ccccc1)c1ccco1` (stereo not drawn) was 1.31% (inactive).
Turning to `CC(C)[C@H](NC(=O)CCn1nnc2ccccc2c1=O)C(=O)O`, the inhibition is 4.34% (inactive).
Turning to `CCN(CC)CCNS(=O)(=O)c1ccc(/C=C/C(=O)O)cc1`, the inhibition was 13.4% (inactive).
For `N/C(=N\c1nc(CSc2ccc(Cl)cc2)cc(=O)[nH]1)Nc1cccc2ccccc12`, the inhibition was 6.58% (inactive).
In the case of `Cc1cccc(C(=O)NNC(=O)Nc2ccccc2)c1`, the inhibition is -2.06% (inactive).
With `CCCOc1ccc(/C(O)=C2/C(=O)C(=O)N(CCCn3ccnc3)C2c2ccco2)cc1` (stereo not drawn), the inhibition is 0.88% (inactive).
As for `Cn1c(=O)[nH]c(=O)c2c1nc(N1CCCCC1)n2CCCSc1nnnn1-c1ccccc1`, the inhibition is 10.1% (inactive).
Consider `COc1ccc(C2=NNC(c3cccs3)=Nc3ccc(OC)cc32)cc1`, for which the inhibition was 17.8% (inactive).
Consider `O=C(Nc1nnc(SCc2ccccc2)s1)c1cccc([N+](=O)[O-])c1`, for which the inhibition was 6.01% (inactive).
Take `CC1(C)NC(=O)N(CC(O)COc2cc3ccccc3cc2C(=O)N2CCCCC2)C1=O` (stereo not drawn): the inhibition is 7% (inactive).
The value for `CC(c1ccco1)N(C(=O)C12CC3CC(CC(C3)C1)C2)c1ccccn1` (stereo not drawn) was 5.6% (inactive); that for `CC1(C)CC(=O)C(C=NCC2CCCO2)=C(O)C1` (stereo not drawn) was 17.9% (inactive).
On to `C=CCn1c(COc2ccccc2)nnc1SCC(=O)O`, for which the inhibition is 11.9% (inactive).
The value for `N=C(N)SCc1nc2ccccc2c(=O)n1-c1ccccc1` was 9.67% (inactive); that for `Cn1c(SCC(=O)N2CCOCC2)nnc1-c1cccc(NC(=O)c2ccccc2)c1` was -2.57% (inactive).
The value for `C=CCN1C(c2ccccc2)=CS/C1=C(\C#N)c1nnc2n1CCCCC2` was 34% (inactive).
Take `CCOC(=O)C(CC)n1nc(C)n2c(cc3sccc32)c1=O` (stereo not drawn): the inhibition was 16.1% (inactive).
For the compound `CCC(C)c1ccccc1OCCCCN1CCCC1` (stereo not drawn), the inhibition was -2.07% (inactive).
`CCOC(=O)N1CCC(N(CCOC)C(=O)Nc2ccc(Cl)cc2)CC1`: the inhibition is 2.12% (inactive).
Consider `CCOC(=O)N1CCC(NC(=O)CN2C(=O)CSc3nc(C)cc(C)c32)CC1`, for which the inhibition is 3.53% (inactive).
On to `Cc1cc(NC(=O)CCC(=O)N(CC(=O)NCC2CCCO2)c2ccccc2C)no1` (stereo not drawn), for which the inhibition was 14.8% (inactive).
For the compound `O=C(CSc1nnc(-c2cc(-c3cccs3)nc3ccccc23)o1)NC1CCCCC1`, the inhibition was 5.57% (inactive).
Take `O=S(=O)(Nc1ccccn1)c1ccc(Cl)c2ccccc12`: the inhibition was 9.42% (inactive).
`Cc1cc(=O)oc2cc(OCC(=O)OCC(=O)NCc3ccc4c(c3)OCO4)ccc12`: the inhibition was 22.5% (inactive).
As to `CCN(C(=O)COC(=O)c1cc(C)n(-c2ccc(F)cc2)c1C)C1CCS(=O)(=O)C1` (stereo not drawn), the inhibition was 2.1% (inactive).
As to `Cc1cc(NC(=O)CCc2ccc(S(=O)(=O)N3CCOCC3)cc2)n(-c2ccccc2)n1`, the inhibition is -9.97% (inactive).
`CN(C)S(=O)(=O)c1ccc(NS(=O)(=O)/C=C/c2ccccc2)cc1`: the inhibition was 0.79% (inactive).
In the case of `CCn1nnnc1-c1ccc(OC)c(S(=O)(=O)NCc2ccccc2)c1`, the inhibition was 5.72% (inactive).
As to `O=C(O)CCC(=O)Nc1ccc(Br)c(Cl)c1`, the inhibition is -3.06% (inactive).
On to `O=S(=O)(/N=C(/Nc1ccccc1)c1ccccc1)c1cccs1`, for which the inhibition was 5.98% (inactive).
For the compound `Cc1ccc2c(c1)C(c1ccc(F)cc1)N(C(=O)c1cc3ccccc3oc1=O)CC(=O)N2` (stereo not drawn), the inhibition was -3.89% (inactive).
Regarding `COc1ccc(/C(C)=N/OCC(=O)N2CC3(C)CC2CC(C)(C)C3)cc1` (stereo not drawn), the inhibition was 17.2% (inactive).
In the case of `C#CCN1C(=O)C(O)(CC(=O)c2cccc(OC)c2)c2ccccc21` (stereo not drawn), the inhibition was 16% (inactive).
`COc1ccc(N2C(=O)CCC2(C#N)c2ccc(Br)cc2)cc1` (stereo not drawn): the inhibition is -2.45% (inactive).
Take `O=c1c2c(n3nnnc3n1-c1ccccc1)-c1ccccc1CC21CCCC1`: the inhibition is -3.55% (inactive).
Regarding `COc1ccccc1N1CCN(c2cc(N3CCCC3)nc(C)n2)CC1`, the inhibition was -3.57% (inactive).
As to `Cc1nc2c(ccc3nc(NC(=O)c4ccc5c(c4)OCCO5)sc32)s1`, the inhibition was 3.48% (inactive).
As for `CCOc1cc(C(=O)NCCCn2ccnc2)cc(OCC)c1OCC`, the inhibition is -4.2% (inactive).
The value for `CCCn1nnc(NC(=O)c2cccc(OCC(C)C)c2)n1` was 27.2% (inactive).
Take `O=C(O)COc1ccc(/C=N/n2cnc3scc(-c4cccs4)c3c2=O)cc1`: the inhibition was 5.08% (inactive).
In the case of `Cn1c(=O)c2c(nc(SCC(=O)NC34CC5CC(CC(C5)C3)C4)n2C)n(C)c1=O`, the inhibition is 16.3% (inactive).
As to `COc1ccc(C(c2nnnn2Cc2ccccc2)N2CCN(c3nc4ccccc4s3)CC2)cc1` (stereo not drawn), the inhibition is 2.21% (inactive).
The value for `Cc1cc(C(=O)N2CCc3ccccc32)c2ccccc2n1` was 2.81% (inactive).
`O=c1ncn(-c2ccccc2F)c2ncccc12`: the inhibition was 1.5% (inactive).
On to `CC(C)C(=O)Nc1ccc(-c2nc3cccnc3o2)cc1`, for which the inhibition was 15.7% (inactive).
In the case of `COc1ccc(/C(O)=C2/C(=O)C(=O)N(Cc3cccnc3)C2c2ccncc2)cc1F` (stereo not drawn), the inhibition was 19.1% (inactive).
Turning to `Cc1c(NC(=O)c2c(N)n(-c3ccccc3)c3nc4ccccc4nc23)c(=O)n(-c2ccccc2)n1C`, the inhibition is 4.61% (inactive).
On to `CC(C)Cn1c(-c2cccs2)nc2ccccc21`, for which the inhibition is 25.7% (inactive).
The value for `COc1cc(-c2nnc(COc3ccc4ccccc4c3)o2)cc(OC)c1OC` was 5.08% (inactive); that for `Cc1[nH]nc2c1C1(C(=O)N(Cc3ccc(Cl)cc3)c3ccccc31)C(C#N)=C(N)O2` (stereo not drawn) was 10.5% (inactive).
As to `CCN(CC)c1ccc(C2C(C(=O)OCCOC)=C(C)NC3=C2C(=O)CC(C)(C)C3)cc1` (stereo not drawn), the inhibition was -4.2% (inactive).
Turning to `CN(CC(=O)Nc1ccc(Cl)cc1)c1ccc(S(=O)(=O)N2CCCCC2)cc1[N+](=O)[O-]`, the inhibition is 7.17% (inactive).
The value for `CCc1cc(OCCOCCN(C)C)ccc1Cl` was 8.67% (inactive); that for `CC12CCC3(CO)COC(c4ccccc4O1)C2C3` (stereo not drawn) was 13.6% (inactive); that for `Cc1ccc(S(=O)(=O)N(C)CCCC(=O)Nc2cc(C)ccc2C)cc1` was -2.3% (inactive).
As to `COc1ccc(-c2nc3cnccn3c2NC(C)(C)CC(C)(C)C)cc1O`, the inhibition was 6.02% (inactive).
For the compound `CCCCOC(=O)CCn1c(=S)oc2ccccc21`, the inhibition was 1.96% (inactive).
The value for `CCCCN(CCCC)S(=O)(=O)c1ccc(NC(=O)c2cccs2)cc1` was -4.73% (inactive).
On to `O=c1[nH][nH]cc1C=Nc1ccc(Cl)cc1`, for which the inhibition is 46.9% (inactive).
With `Cc1ccc(N2CCN(/N=C/c3cccs3)CC2)cc1`, the inhibition is 1.13% (inactive).
For `COc1cc(NC(=O)CN2CCC(C)CC2)c(C)cc1[N+](=O)[O-]`, the inhibition was 8.41% (inactive).
Regarding `O=C(C1CCN(c2nc3ccc(Br)cc3s2)CC1)N1CCC2(CC1)OCCO2`, the inhibition was 5.07% (inactive).
Regarding `CN1CCN(C(c2ccc(F)cc2)c2nnnn2Cc2cccs2)CC1` (stereo not drawn), the inhibition was 10.2% (inactive).
Consider `CC1CC1c1ccc(/C=C(\C#N)C(=O)Nc2ccc(Cl)cc2)o1` (stereo not drawn), for which the inhibition was 7.94% (inactive).
